Data on three molecules can be found in article PMC7659001, “The auxin-inducible degron 2 technology provides sharp degradation control in yeast, mammalian cells, and mice” (Nature Communications, 2020).

Holding throughout (type): cell-based
Assay [1] addresses T1, OsTIR1 (Oryza sativa subsp. japonica, UniProt P93830+Q7XVM8, Q7XVM8:F74G).
T1 construct: gene Os04g0395600; with mAID degron (Arabidopsis IAA17); SCF (Skp1-Cul1)
Kind of assay: mAID-EGFP-NLS reporter degradation dose response in HCT116 cells (DC50).

For assay [2], the target named is T2, OsTIR1 (Oryza sativa subsp. japonica, UniProt P93830+Q7XVM8).
T2 construct: gene Os04g0395600; with mAID degron (Arabidopsis IAA17); SCF (Skp1-Cul1)
The description is as above.

In assay [3] the target is T3, OsTIR1 (Oryza sativa, UniProt Q7XVM8).
T3 construct: gene Os04g0395600
T3 sequence (Q7XVM8 1-575): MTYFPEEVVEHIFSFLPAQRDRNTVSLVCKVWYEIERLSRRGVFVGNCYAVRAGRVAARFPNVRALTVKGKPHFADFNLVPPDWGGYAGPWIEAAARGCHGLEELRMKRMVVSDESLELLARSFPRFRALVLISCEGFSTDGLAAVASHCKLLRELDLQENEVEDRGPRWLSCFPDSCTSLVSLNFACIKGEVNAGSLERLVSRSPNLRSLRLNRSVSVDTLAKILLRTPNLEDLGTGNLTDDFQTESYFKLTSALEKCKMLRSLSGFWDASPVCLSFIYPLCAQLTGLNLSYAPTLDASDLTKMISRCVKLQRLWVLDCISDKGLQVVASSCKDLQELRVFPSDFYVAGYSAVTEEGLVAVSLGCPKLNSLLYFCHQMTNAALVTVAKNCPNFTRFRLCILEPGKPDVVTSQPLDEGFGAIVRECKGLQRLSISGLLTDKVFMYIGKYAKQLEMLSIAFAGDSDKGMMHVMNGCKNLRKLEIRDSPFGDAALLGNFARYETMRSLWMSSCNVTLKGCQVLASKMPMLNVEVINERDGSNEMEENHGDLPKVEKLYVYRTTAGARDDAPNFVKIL
Briefly: OsTIR1(WT) level in HCT116 cells raised by the inhibitor (suppressed autodegradation).

T1 sequence (Q7XVM8 whole entry F74G): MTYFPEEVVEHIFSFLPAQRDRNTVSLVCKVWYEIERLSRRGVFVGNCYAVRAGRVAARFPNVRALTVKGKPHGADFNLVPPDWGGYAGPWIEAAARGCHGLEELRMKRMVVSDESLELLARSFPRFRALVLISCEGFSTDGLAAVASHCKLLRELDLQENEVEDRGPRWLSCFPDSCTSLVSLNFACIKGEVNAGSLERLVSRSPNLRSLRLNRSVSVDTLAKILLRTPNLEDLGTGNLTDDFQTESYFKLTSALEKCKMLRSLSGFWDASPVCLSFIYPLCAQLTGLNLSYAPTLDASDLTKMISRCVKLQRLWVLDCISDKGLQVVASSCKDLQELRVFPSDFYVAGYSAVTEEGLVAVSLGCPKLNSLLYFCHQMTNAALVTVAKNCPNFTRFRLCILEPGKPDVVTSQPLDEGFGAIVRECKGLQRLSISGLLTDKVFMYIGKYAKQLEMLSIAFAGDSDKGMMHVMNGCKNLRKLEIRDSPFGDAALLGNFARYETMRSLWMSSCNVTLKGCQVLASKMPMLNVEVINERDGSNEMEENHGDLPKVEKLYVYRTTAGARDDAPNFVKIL
T1 sequence (P93830 65-132 limits assumed): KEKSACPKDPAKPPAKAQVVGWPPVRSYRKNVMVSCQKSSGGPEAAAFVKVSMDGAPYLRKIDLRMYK
T2 sequence (P93830 whole entry, one chain of several): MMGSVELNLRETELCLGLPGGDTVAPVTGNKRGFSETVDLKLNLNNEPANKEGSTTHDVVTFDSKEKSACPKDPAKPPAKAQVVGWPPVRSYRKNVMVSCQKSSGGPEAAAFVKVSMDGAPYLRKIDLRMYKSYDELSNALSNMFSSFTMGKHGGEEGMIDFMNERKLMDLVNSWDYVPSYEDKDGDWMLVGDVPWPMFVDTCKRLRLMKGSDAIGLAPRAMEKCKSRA

A word on the DC50: it is the concentration giving 50% degradation. A high value points to degradation only at high concentration. For `O=C(O)Cc1c[nH]c2ccc(-c3ccccc3)cc12` [5-Ph-IAA, 5-phenyl-indole-3-acetic acid], it took 0.00045 ± 1e-05 µM to reach half-maximal degradation in assay [1] (DC50).
With `O=C(O)Cc1c[nH]c2ccccc12` [IAA, indole-3-acetic acid], the 50% degradation concentration (DC50) in assay [2] came to 0.3 ± 0.03 µM.
Consider `Cc1ccc(C(=O)CC(C(=O)O)c2c[nH]c3ccccc23)c(C)c1` (stereo not drawn) [auxinole], for which the “OsTIR1(WT) level in HCT116 cells raised by the inhibitor (suppressed autodegrada)” value in assay [3] was “The expression level of OsTIR1(WT) was enhanced by the addition of an OsTIR1 inhibitor auxinole”.
